# Reference: paper PMC6066796 (Antiviral Research, 2018)
# pEC50: −log10 of the molar value. Read-outs that look alike come from different tables or passages of the source.
# Experiments:
# EBOV-ZsG = experiment: microbe, parasite or virus in culture; format: cell-based, Ebola virus
# SUDV (Gulu variant) [1] = format: cell-based
# NiV-GFP2AM [2] = experiment: microbe, parasite or virus in culture; format: cell-based, Nipah virus
# hPIV3-GFP = experiment: microbe, parasite or virus in culture; format: cell-based, human parainfluenza virus 3
# RVFV-GFP, ZH501 = experiment: microbe, parasite or virus in culture; format: cell-based, Rift Valley Fever virus
# NiV-GFP2AM [3] = experiment: microbe, parasite or virus in culture; format: cell-based, Nipah virus; remark: listed apart in the source
# henipavirus (NiV, HeV) = format: cell-based, Nipah virus, Hendra virus
# [4] = test system: recombinant EBOV (Mayinga variant); format: cell-based, Ebola virus
# EBOV (Makona variant) = format: cell-based, Ebola virus
# MARV-ZsG = format: cell-based, Marburg virus
# rgRSV224 = experiment: microbe, parasite or virus in culture; format: cell-based, respiratory syncytial virus
# rMV^EZEGFP(3) = format: cell-based, Measles virus
# SUDV (Gulu variant) [5] = format: cell-based; remark: listed apart in the source
# reporter EBOVs = format: cell-based, Ebola virus
# EBOV = conditions: at 1000 μM; cited from earlier work
# Huh7 cells = conditions: human
# SK-N-MC cells = conditions: human
# NiV (Malaysian genotype) = experiment: microbe, parasite or virus in culture; format: cell-based, Nipah virus
# NCI-H358 cells [6] = conditions: human
# HeV = experiment: microbe, parasite or virus in culture; format: cell-based, Hendra virus
# NCI-H358 cells [7] = test system: NCI-H358 cells
# HeLa cells = conditions: human
# NiV and EBOV = format: cell-based, Nipah virus, Ebola virus
# [8] = Henipavirus nipahense, SAEC, in Homo sapiens
compound,measurement,setting,value
2′-monofluoro-4′-azidocytidine [2′F-4′N3-C],pEC50,EBOV-ZsG,5.41
same,Reduction of infectious SUDV yield,SUDV (Gulu variant) [1],approximately 1.5 orders of magnitude
same,Effect on CPE,NiV-GFP2AM [2],completely abolished
same,pEC50,hPIV3-GFP,6.80
same,pEC50,"RVFV-GFP, ZH501",< 4.30
same,Effect on GFP expression,NiV-GFP2AM [3],completely abolished
same,Reduction of infectious henipavirus yields,"henipavirus (NiV, HeV)",4–5 orders of magnitude
same,pEC50,[4],5.11
same,Inhibition of FFU formation,EBOV (Makona variant),did not detect significant inhibition
same,pEC50,MARV-ZsG,< 4.30
same,Inhibition of MARV infection by FFU assay,MARV-ZsG,did not show any significant inhibition
same,pEC50,rgRSV224,6.55
same,pEC50,rMV^EZEGFP(3),6.57
same,pEC50,SUDV (Gulu variant) [5],~5.00
same,Antiviral activity against reporter EBOVs in Huh7 cells,reporter EBOVs,significantly decreased antiviral activity
NC(=O)c1nc(F)c[nH]c1=O [Favipiravir],Decrease of EBOV infectious yield,EBOV,4 logTCID50/mL
"[N-]=[N+]=N[C@]1(CO)O[C@@H](n2ccc(N)nc2=O)[C@H](O)[C@@H]1O [R1479, 4′-azidocytidine]",R1479-TP level (intracellular triphosphate),Huh7 cells,18 ± 0.6 pmol/million cells
same,SI (selective index),EBOV-ZsG,2.1 ± 0.07 [>47]
same,pEC50,"EBOV-ZsG; Zaire ebolavirus, NCI-H358",5.68
same,R1479-TP level (intracellular triphosphate),SK-N-MC cells,42 ± 10 pmol/million cells
same,Reduction of infectious SUDV titers,SUDV (Gulu variant) [1]; at 25 μM,> 4 orders of magnitude
same,pEC50,NiV-GFP2AM [2]; [8],< 4.30
same,SI (selective index),hPIV3-GFP,3.2 ± 0.50 [>32]
same,pEC50,"hPIV3-GFP; Human respirovirus 3, NCI-H358",5.49
same,pEC50,"RVFV-GFP, ZH501; Rift Valley fever virus, NCI-H358",< 4.30
same,SI (selective index),NiV (Malaysian genotype),2.9 ± 0.95 [>34]
same,pEC50,"NiV (Malaysian genotype); Henipavirus nipahense, NCI-H358",5.54
same,pEC50,NiV-GFP2AM [3]; [8],< 4.30
same,pEC50,[4],5.59
same,R1479-TP level (intracellular triphosphate),NCI-H358 cells [6],391 ± 72 pmol/million cells
same,SI (selective index),HeV,2.1 ± 0.57 [>47]
same,pEC50,"HeV; Henipavirus hendraense, NCI-H358",5.68
same,pEC50,EBOV (Makona variant),5.68
same,Inhibition of FFU formation,EBOV (Makona variant),dose-dependent inhibition
same,Inhibition of MARV infection by FFU assay,MARV-ZsG,did not show any significant inhibition
same,SI (selective index),rgRSV224,3.3 ± 0.39 [>30]
same,pEC50,"rgRSV224; human respiratory syncytial virus, NCI-H358",5.48
same,Cytotoxicity (cell viability),NCI-H358 cells [7],mild cytotoxicity
same,SI (selective index),rMV^EZEGFP(3),1.9 ± 0.12 [>52]
same,R1479-TP level (intracellular triphosphate),HeLa cells,136 ± 21 pmol/million cells
same,Antiviral activity against reporter EBOVs in Huh7 cells,reporter EBOVs,significantly decreased antiviral activity
"[N-]=[N+]=N[C@]1(CO)O[C@@H](n2ccc(N)nc2=O)[C@@H](F)[C@@H]1O [RO-0622, 2′-deoxy-2′-β-fluoro-4′-azidocytidine]",Antiviral activity against NiV and EBOV,NiV and EBOV,little to no antiviral activity
"[N-]=[N+]=N[C@]1(CO)O[C@@H](n2ccc(N)nc2=O)[C@@H](O)[C@@H]1O [RO-9187, 2′-deoxy-2′-β-hydroxy-4′-azidocytidine]",Antiviral activity against NiV and EBOV,NiV and EBOV,little to no antiviral activity
